Among the test systems are 786-0 renal; A498 renal; A549 NSCLC; BT-549 breast; CAKI-1 renal; CCRF-CEM leukemia; HS 578T breast; K-562 leukemia; MDA-N; NCI-H226 lung; NCI/ADR-RES ovarian; OVCAR-8 ovarian; RXF 393 renal; SF-295 CNS; UO-31 renal; MALME-3M melanoma; MOLT-4 leukemia; OVCAR-4 ovarian; RPMI-8226 leukemia.
Holding throughout (test): growth of human tumour cells (NCI), 48 h

This note sets out measurements from PubChem BioAssay (NCI).

Each structure is given as a SMILES string.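 Each compound was tested at five concentrations against cells in 96-well plates for 48 hours. Definition used: TGI = concentration required for complete inhibition of growth.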

For `O=C(O)c1ccc(OCc2nc3cc(C(F)(F)F)ccc3nc2-c2ccccc2)cc1`, the TGI was above 100 µM in the test on 786-0 renal; above 100 µM in the test with A498 renal; above 100 µM in the test with A549 NSCLC; above 100 µM with BT-549 breast; 19.6 µM in the test on CAKI-1 renal; above 100 µM with CCRF-CEM leukemia. In addition, the TGI in the test on HS 578T breast, with K-562 leukemia, in the test with MDA-N, in the test on NCI-H226 lung, in the test with NCI/ADR-RES ovarian and in the test on OVCAR-8 ovarian was above 100 µM throughout. Moreover, the TGI in the test on RXF 393 renal was above 100 µM; with SF-295 CNS, above 100 µM; in the test with UO-31 renal, 39 µM.

In the case of `C=CCOc1ccc(C2(O)c3ccccc3C3=NCCCN32)cc1` (configuration not stated), the TGI with 786-0 renal was above 78.6 µM; in the test on A498 renal it was above 100 µM; in the test with A549 NSCLC it was above 100 µM; with BT-549 breast it was above 100 µM; in the test with CAKI-1 renal it was above 100 µM; with CCRF-CEM leukemia, above 100 µM. Moreover, the TGI in the test with HS 578T breast was above 100 µM; in the test with K-562 leukemia, above 87.2 µM; with MALME-3M melanoma it was 27.4 µM; in the test with MDA-N, above 63.2 µM; with MOLT-4 leukemia, above 100 µM; in the test on NCI-H226 lung, above 100 µM. The TGI in the test with NCI/ADR-RES ovarian was above 100 µM; in the test with OVCAR-4 ovarian, above 100 µM; with OVCAR-8 ovarian, above 100 µM; in the test on RPMI-8226 leukemia, above 78.5 µM; in the test on SF-295 CNS it was above 100 µM; in the test on UO-31 renal, above 100 µM.

As for `CN1COCc2c1ccc1cc3ccc4c(c3nc21)COCN4S(C)(=O)=O`, the TGI with 786-0 renal, in the test with A498 renal, in the test with A549 NSCLC, in the test with BT-549 breast, in the test on CAKI-1 renal and in the test on CCRF-CEM leukemia was above 100 µM throughout. Moreover, the TGI with HS 578T breast, in the test on K-562 leukemia, in the test with MALME-3M melanoma, in the test with MDA-N, in the test on MOLT-4 leukemia and in the test on NCI-H226 lung was above 100 µM in each case. The TGI in the test with NCI/ADR-RES ovarian, with OVCAR-4 ovarian, with OVCAR-8 ovarian, with RXF 393 renal, in the test with SF-295 CNS and in the test with UO-31 renal was above 100 µM each time.

With `Cc1ccc(O)c(-c2cscn2)c1`, the TGI in the test with 786-0 renal was above 100 µM; in the test on A498 renal it was 70 µM; with A549 NSCLC, above 100 µM; in the test with BT-549 breast it was above 100 µM; in the test with CAKI-1 renal, above 100 µM; in the test on CCRF-CEM leukemia, above 100 µM. The TGI with HS 578T breast, with K-562 leukemia, with MALME-3M melanoma, in the test on MDA-N, with MOLT-4 leukemia and with NCI/ADR-RES ovarian was above 100 µM throughout. Also, the TGI with OVCAR-4 ovarian, in the test on OVCAR-8 ovarian, with RPMI-8226 leukemia, in the test on SF-295 CNS and with UO-31 renal was above 100 µM each time.

With `CCCCN=C(c1ccccc1)N1CCOCC1`, the TGI in the test on 786-0 renal, in the test on A498 renal, in the test with BT-549 breast, in the test with CAKI-1 renal, with CCRF-CEM leukemia and with HS 578T breast was above 100 µM each time. For the same compound, the TGI in the test with K-562 leukemia, in the test on MALME-3M melanoma, with MDA-N, in the test with MOLT-4 leukemia, in the test with NCI-H226 lung and in the test on NCI/ADR-RES ovarian was above 100 µM each time. For the same compound, the TGI in the test with OVCAR-8 ovarian, in the test with RPMI-8226 leukemia, with RXF 393 renal, with SF-295 CNS and in the test with UO-31 renal was above 100 µM each time.

As to `CC1CCCC(CC(=O)O)(CC(=O)O)C1` (configuration not stated), the TGI with 786-0 renal, with A498 renal, in the test with A549 NSCLC, with BT-549 breast, in the test on CAKI-1 renal and with CCRF-CEM leukemia was above 100 µM each time. Moreover, the TGI in the test with HS 578T breast, with K-562 leukemia, in the test with MALME-3M melanoma, with MDA-N, in the test on MOLT-4 leukemia and in the test on NCI-H226 lung was above 100 µM each time. Also, the TGI with NCI/ADR-RES ovarian, in the test on OVCAR-4 ovarian, in the test on OVCAR-8 ovarian, in the test on RPMI-8226 leukemia and in the test on UO-31 renal was above 100 µM each time.

Take `COc1ccc2c(cnc3c4cc(OC)c(OC)cc4ccc23)c1`: the TGI in the test on 786-0 renal, with A498 renal, in the test on A549 NSCLC, in the test on BT-549 breast, in the test with CAKI-1 renal and in the test with CCRF-CEM leukemia was above 100 µM throughout. Further, the TGI in the test on HS 578T breast, with K-562 leukemia, with MALME-3M melanoma, in the test on MDA-N, with MOLT-4 leukemia and in the test on NCI-H226 lung was above 100 µM each time. Further, the TGI with NCI/ADR-RES ovarian, in the test with OVCAR-4 ovarian, with OVCAR-8 ovarian, in the test with RXF 393 renal, in the test on SF-295 CNS and with UO-31 renal was above 100 µM in each case.

`COc1ccc2c(c1)CCN1CCc3ccccc3CC21` (configuration not stated): the TGI in the test on 786-0 renal, with A498 renal, in the test on A549 NSCLC, with BT-549 breast, in the test with CAKI-1 renal and with CCRF-CEM leukemia was above 100 µM throughout. The TGI in the test with HS 578T breast is above 100 µM; in the test with K-562 leukemia it was above 100 µM; with MALME-3M melanoma it was above 100 µM; in the test on MDA-N, above 100 µM; in the test with MOLT-4 leukemia it was above 100 µM; in the test on NCI-H226 lung, 83.5 µM. In addition, the TGI was above 100 µM with NCI/ADR-RES ovarian; above 100 µM with OVCAR-4 ovarian; above 100 µM in the test with OVCAR-8 ovarian; 54.9 µM in the test on RPMI-8226 leukemia; 56.1 µM in the test with SF-295 CNS; 36 µM with UO-31 renal.

Regarding `CCOC(=O)NC(Nc1ccc([N+](=O)[O-])cc1)(C(F)(F)F)C(F)(F)F`, the TGI with 786-0 renal, in the test with A498 renal, in the test on A549 NSCLC, in the test on BT-549 breast, in the test on CAKI-1 renal and with CCRF-CEM leukemia was above 100 µM throughout. Further, the TGI with HS 578T breast was above 100 µM; in the test with K-562 leukemia, above 100 µM; in the test with MALME-3M melanoma it was above 100 µM; with MDA-N it was 54.7 µM; with MOLT-4 leukemia, above 100 µM; in the test on NCI-H226 lung, above 100 µM. For the same compound, the TGI was above 100 µM in the test on NCI/ADR-RES ovarian; above 100 µM in the test with OVCAR-8 ovarian; above 100 µM in the test on RPMI-8226 leukemia; 97.1 µM with RXF 393 renal; above 100 µM in the test on SF-295 CNS; above 100 µM with UO-31 renal.

In the case of `CC1=NNC(=O)C1C(CC(=O)c1c[nH]c2ccccc12)C(=O)O` (configuration not stated), the TGI with 786-0 renal, with A498 renal, in the test on A549 NSCLC, with BT-549 breast, in the test on CAKI-1 renal and in the test with CCRF-CEM leukemia was above 100 µM in each case. The TGI in the test on HS 578T breast, in the test with K-562 leukemia, with MALME-3M melanoma, in the test on MDA-N, in the test with MOLT-4 leukemia and in the test with NCI-H226 lung was above 100 µM each time. Further, the TGI in the test with NCI/ADR-RES ovarian, in the test with OVCAR-8 ovarian, in the test on RPMI-8226 leukemia, in the test with RXF 393 renal, in the test with SF-295 CNS and in the test with UO-31 renal was above 100 µM in each case.

As to `Nc1ccc(C(=O)N2CCC[C@H]2CO)c(N)c1`, the TGI in the test on 786-0 renal, in the test with A498 renal, in the test on A549 NSCLC, in the test with BT-549 breast, in the test on CAKI-1 renal and in the test on CCRF-CEM leukemia was above 100 µM each time. The TGI in the test on HS 578T breast, in the test on K-562 leukemia, in the test with MDA-N, in the test with MOLT-4 leukemia, in the test on NCI-H226 lung and in the test on NCI/ADR-RES ovarian was above 100 µM each time. Moreover, the TGI in the test on OVCAR-4 ovarian, with OVCAR-8 ovarian, in the test with RPMI-8226 leukemia, in the test on RXF 393 renal, in the test with SF-295 CNS and in the test on UO-31 renal was above 100 µM in each case.

Consider `Cn1c(COC(=O)Nc2ccccc2)c(COC(=O)Nc2ccccc2)c2ccc3cc(Cl)c(Cl)cc3c21`, for which the TGI with 786-0 renal is 12.6 µM; in the test with A498 renal, 4.25 µM; with A549 NSCLC, above 75 µM; in the test with BT-549 breast, 12.6 µM; with CAKI-1 renal it was 3.09 µM; in the test on CCRF-CEM leukemia it was above 75 µM. In addition, the TGI was 29 µM with HS 578T breast; above 75 µM with K-562 leukemia; 6.59 µM in the test with MALME-3M melanoma; 18.3 µM in the test on MDA-N; above 75 µM in the test on MOLT-4 leukemia; 54.7 µM in the test on NCI-H226 lung. Also, the TGI in the test with NCI/ADR-RES ovarian was 66.7 µM; in the test on OVCAR-8 ovarian it was 7.5 µM; with RXF 393 renal, 39.5 µM; with SF-295 CNS it was 64.2 µM; with UO-31 renal, 26.5 µM.

For the compound `CC(C)(C)C(=O)CC1=Nc2ccccc2SC1(O)CC(=O)C(C)(C)C` (configuration not stated), the TGI in the test with 786-0 renal was 68.3 µM; in the test on A498 renal, above 100 µM; in the test on A549 NSCLC, 51 µM; in the test with BT-549 breast it was 51.1 µM; with CAKI-1 renal, 56.8 µM; with CCRF-CEM leukemia, 32.2 µM. The TGI in the test on HS 578T breast is 71.7 µM; with K-562 leukemia, 97.1 µM; in the test on MALME-3M melanoma, above 100 µM; with MDA-N, above 100 µM; with MOLT-4 leukemia it was 24.3 µM; in the test with NCI-H226 lung, 40.3 µM. Also, the TGI was determined as 66.8 µM in the test on NCI/ADR-RES ovarian; 57 µM in the test on OVCAR-8 ovarian; 25.7 µM in the test with RPMI-8226 leukemia; 65.8 µM in the test on RXF 393 renal; 68.6 µM with SF-295 CNS; 44.2 µM with UO-31 renal.
